Columns and labels:
Format in all cases: in vivo
[1] = system: redroot pigweed (Amaranthus retroflexus); test: Test G Post-Emergence Protocol; settings: Amaranthus retroflexus, post-emergence, 312 h, read-out: Pigweed, Redroot damage rating; for pest or weed control at 15.625 g/ha: 15.625 g ai/ha, evaluated after 13 days (100=total damage to plant; 0=no damage to plant); for pest or weed control at 62.5 g/ha: 62.5 g ai/ha; for pest or weed control at 62.5 g/ha / pest or weed control at 250 g/ha: evaluated after 13 days, 100=total damage to plant, 0=no damage to plant; for pest or weed control at 250 g/ha: 250 g ai/ha
Method in brief: (§1)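 Seedlings grown 8 days in soil in a glasshouse (24/16 °C day/night, 14 h light, 65% humidity) were sprayed post-emergence with compound in acetone/water 50:50 plus 0.5% Tween 20 at 15.625, 62.5 or 250 g/ha. Damage was scored after 13 days on a 0–100 scale (100 = total damage).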

[2] = system: giant foxtail (Setaria faberi); test: Test G Post-Emergence Protocol; settings: Setaria faberi, post-emergence, 312 h, read-out: Foxtail, Giant damage rating; for pest or weed control at 15.625 g/ha: 15.625 g ai/ha, evaluated after 13 days (100=total damage to plant; 0=no damage to plant); for pest or weed control at 62.5 g/ha: 62.5 g ai/ha; for pest or weed control at 62.5 g/ha / pest or weed control at 250 g/ha: evaluated after 13 days, 100=total damage to plant, 0=no damage to plant; for pest or weed control at 250 g/ha: 250 g ai/ha
Method in brief: as §1

[3] = system: ivy-leaved morning glory (Ipomoea hederacea); test: Test G Post-Emergence Protocol; settings: Ipomoea, post-emergence, 312 h, read-out: Morningglory, Ivy-leaved damage rating; for pest or weed control at 15.625 g/ha: 15.625 g ai/ha, evaluated after 13 days (100=total damage to plant; 0=no damage to plant); for pest or weed control at 62.5 g/ha: 62.5 g ai/ha; for pest or weed control at 62.5 g/ha / pest or weed control at 250 g/ha: evaluated after 13 days, 100=total damage to plant, 0=no damage to plant; for pest or weed control at 250 g/ha: 250 g ai/ha
Method in brief: as §1

corn (Zea mays) [4] = test: Test G Post-Emergence Protocol; settings: Zea mays, post-emergence, 312 h, read-out: Corn damage rating; for plant injury at 15.625 g/ha: 15.625 g ai/ha, evaluated after 13 days (100=total damage to plant; 0=no damage to plant); for plant injury at 62.5 g/ha: 62.5 g ai/ha; for plant injury at 62.5 g/ha / plant injury at 250 g/ha: evaluated after 13 days, 100=total damage to plant, 0=no damage to plant; for plant injury at 250 g/ha: 250 g ai/ha
Method in brief: as §1

[5] = system: barnyardgrass (Echinochloa crus-galli); test: Test G Post-Emergence Protocol; settings: Echinochloa crus-galli, post-emergence, 312 h, read-out: Barnyardgrass damage rating; for pest or weed control at 15.625 g/ha: 15.625 g ai/ha, evaluated after 13 days (100=total damage to plant; 0=no damage to plant); for pest or weed control at 62.5 g/ha: 62.5 g ai/ha; for pest or weed control at 62.5 g/ha / pest or weed control at 250 g/ha: evaluated after 13 days, 100=total damage to plant, 0=no damage to plant; for pest or weed control at 250 g/ha: 250 g ai/ha
Method in brief: as §1

[6] = system: velvetleaf (Abutilon theophrasti); test: Test G Post-Emergence Protocol; settings: Abutilon theophrasti, post-emergence, 312 h, read-out: Velvetleaf damage rating; for pest or weed control at 15.625 g/ha: 15.625 g ai/ha, evaluated after 13 days (100=total damage to plant; 0=no damage to plant); for pest or weed control at 62.5 g/ha: 62.5 g ai/ha; for pest or weed control at 62.5 g/ha / pest or weed control at 250 g/ha: evaluated after 13 days, 100=total damage to plant, 0=no damage to plant; for pest or weed control at 250 g/ha: 250 g ai/ha
Method in brief: as §1

[7] = system: redroot pigweed (Amaranthus retroflexus); test: Test G Pre-Emergence Protocol; settings: Amaranthus retroflexus, pre-emergence, 312 h, evaluated after 13 days; for pest or weed control at 15.625 g/ha: 15.625 g ai/ha; for pest or weed control at 15.625 g/ha / pest or weed control at 250 g/ha: read-out: Pigweed, Redroot damage rating (100=total damage to plant; 0=no damage to plant); for pest or weed control at 62.5 g/ha: 62.5 g ai/ha, 100=total damage to plant, 0=no damage to plant, read-out: Pigweed, Redroot damage rating; for pest or weed control at 250 g/ha: 250 g ai/ha
Method in brief: (§2)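 Glasshouse pre-emergence test: soil-sown seeds, sprayed after 1 d at 15.625, 62.5 or 250 g/ha. Conditions 24/16° C day/night, 14 h light, 65% humidity, watering twice daily. Rating 13 d post-spray (100 = total damage).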

[8] = system: giant foxtail (Setaria faberi); test: Test G Pre-Emergence Protocol; settings: Setaria faberi, pre-emergence, 312 h, evaluated after 13 days; for pest or weed control at 15.625 g/ha: 15.625 g ai/ha; for pest or weed control at 15.625 g/ha / pest or weed control at 250 g/ha: read-out: Foxtail, Giant damage rating (100=total damage to plant; 0=no damage to plant); for pest or weed control at 62.5 g/ha: 62.5 g ai/ha, 100=total damage to plant, 0=no damage to plant, read-out: Foxtail, Giant damage rating; for pest or weed control at 250 g/ha: 250 g ai/ha
Method in brief: as §2

[9] = system: ivy-leaved morning glory (Ipomoea hederacea); test: Test G Pre-Emergence Protocol; settings: Ipomoea, pre-emergence, 312 h, evaluated after 13 days; for pest or weed control at 15.625 g/ha: 15.625 g ai/ha; for pest or weed control at 15.625 g/ha / pest or weed control at 250 g/ha: read-out: Morningglory, Ivy-leaved damage rating (100=total damage to plant; 0=no damage to plant); for pest or weed control at 62.5 g/ha: 62.5 g ai/ha, 100=total damage to plant, 0=no damage to plant, read-out: Morningglory, Ivy-leaved damage rating; for pest or weed control at 250 g/ha: 250 g ai/ha
Method in brief: as §2

corn (Zea mays) [10] = test: Test G Pre-Emergence Protocol; settings: Zea mays, pre-emergence, 312 h, evaluated after 13 days; for plant injury at 15.625 g/ha: 15.625 g ai/ha; for plant injury at 15.625 g/ha / plant injury at 250 g/ha: read-out: Corn damage rating (100=total damage to plant; 0=no damage to plant); for plant injury at 62.5 g/ha: 62.5 g ai/ha, 100=total damage to plant, 0=no damage to plant, read-out: Corn damage rating; for plant injury at 250 g/ha: 250 g ai/ha
Method in brief: as §2

[11] = system: barnyardgrass (Echinochloa crus-galli); test: Test G Pre-Emergence Protocol; settings: Echinochloa crus-galli, pre-emergence, 312 h, evaluated after 13 days; for pest or weed control at 15.625 g/ha: 15.625 g ai/ha; for pest or weed control at 15.625 g/ha / pest or weed control at 250 g/ha: read-out: Barnyardgrass damage rating (100=total damage to plant; 0=no damage to plant); for pest or weed control at 62.5 g/ha: 62.5 g ai/ha, 100=total damage to plant, 0=no damage to plant, read-out: Barnyardgrass damage rating; for pest or weed control at 250 g/ha: 250 g ai/ha
Method in brief: as §2

[12] = system: velvetleaf (Abutilon theophrasti); test: Test G Pre-Emergence Protocol; settings: Abutilon theophrasti, pre-emergence, 312 h, evaluated after 13 days; for pest or weed control at 15.625 g/ha: 15.625 g ai/ha; for pest or weed control at 15.625 g/ha / pest or weed control at 250 g/ha: read-out: Velvetleaf damage rating (100=total damage to plant; 0=no damage to plant); for pest or weed control at 62.5 g/ha: 62.5 g ai/ha, 100=total damage to plant, 0=no damage to plant, read-out: Velvetleaf damage rating; for pest or weed control at 250 g/ha: 250 g ai/ha
Method in brief: as §2

SMILES	pest or weed control at 15.625 g/ha [1]	pest or weed control at 62.5 g/ha [1]	pest or weed control at 250 g/ha [1]	pest or weed control at 15.625 g/ha [2]	pest or weed control at 62.5 g/ha [2]	pest or weed control at 250 g/ha [2]	pest or weed control at 15.625 g/ha [3]	pest or weed control at 62.5 g/ha [3]	pest or weed control at 250 g/ha [3]	plant injury at 15.625 g/ha (corn (Zea mays) [4])	plant injury at 62.5 g/ha (corn (Zea mays) [4])	plant injury at 250 g/ha (corn (Zea mays) [4])	pest or weed control at 15.625 g/ha [5]	pest or weed control at 62.5 g/ha [5]	pest or weed control at 250 g/ha [5]	pest or weed control at 15.625 g/ha [6]	pest or weed control at 62.5 g/ha [6]	pest or weed control at 250 g/ha [6]	pest or weed control at 15.625 g/ha [7]	pest or weed control at 62.5 g/ha [7]	other results
CN1C[C@@H](c2ccc(C(F)(F)F)cc2)[C@H](C(=O)Nc2cnc(Cl)cn2)C1=O (racemic) [Compound 1649]	0%	0%	40%	0%	0%	60%	0%	0%	0%	0%	0%	0%	0%	0%	20%	0%	0%	0%	0%	20%	pest or weed control at 250 g/ha [7]: 20%; pest or weed control at 15.625 g/ha [8]: 0%; pest or weed control at 62.5 g/ha [8]: 10%; pest or weed control at 250 g/ha [8]: 20%; pest or weed control at 15.625 g/ha [9]: 0%; pest or weed control at 62.5 g/ha [9]: 0%; pest or weed control at 250 g/ha [9]: 0%; plant injury at 15.625 g/ha (corn (Zea mays) [10]): 0%; plant injury at 62.5 g/ha (corn (Zea mays) [10]): 0%; plant injury at 250 g/ha (corn (Zea mays) [10]): 0%; pest or weed control at 15.625 g/ha [11]: 0%; pest or weed control at 62.5 g/ha [11]: 0%; pest or weed control at 250 g/ha [11]: 0%; pest or weed control at 15.625 g/ha [12]: 0%; pest or weed control at 62.5 g/ha [12]: 0%; pest or weed control at 250 g/ha [12]: 0%
Cc1c(F)ccc(NC(=O)[C@@H]2C(=O)N(C)C[C@H]2c2ccc(C(F)(F)F)cc2)c1Cl (racemic) [Compound 1651]	0%	0%	0%	0%	70%	90%	0%	10%	10%	0%	0%	0%	0%	30%	10%	0%	0%	10%	0%	10%	pest or weed control at 250 g/ha [7]: 20%; pest or weed control at 15.625 g/ha [8]: 0%; pest or weed control at 62.5 g/ha [8]: 20%; pest or weed control at 250 g/ha [8]: 80%; pest or weed control at 15.625 g/ha [9]: 0%; pest or weed control at 62.5 g/ha [9]: 0%; pest or weed control at 250 g/ha [9]: 0%; plant injury at 15.625 g/ha (corn (Zea mays) [10]): 0%; plant injury at 62.5 g/ha (corn (Zea mays) [10]): 0%; plant injury at 250 g/ha (corn (Zea mays) [10]): 0%; pest or weed control at 15.625 g/ha [11]: 0%; pest or weed control at 62.5 g/ha [11]: 0%; pest or weed control at 250 g/ha [11]: 20%; pest or weed control at 15.625 g/ha [12]: 0%; pest or weed control at 62.5 g/ha [12]: 0%; pest or weed control at 250 g/ha [12]: 10%
Cc1nc(F)ccc1NC(=O)[C@@H]1C(=O)N(C)C[C@H]1c1ccc(C(F)(F)F)cc1 (racemic) [Compound 1654]	10%	20%	30%	20%	40%	80%	10%	20%	30%	0%	0%	20%	0%	20%	60%	0%	20%	40%	0%	0%	pest or weed control at 250 g/ha [7]: 0%; pest or weed control at 15.625 g/ha [8]: 20%; pest or weed control at 62.5 g/ha [8]: 60%; pest or weed control at 250 g/ha [8]: 90%; pest or weed control at 15.625 g/ha [9]: 0%; pest or weed control at 62.5 g/ha [9]: 0%; plant injury at 15.625 g/ha (corn (Zea mays) [10]): 0%; plant injury at 62.5 g/ha (corn (Zea mays) [10]): 0%; plant injury at 250 g/ha (corn (Zea mays) [10]): 20%; pest or weed control at 15.625 g/ha [11]: 0%; pest or weed control at 62.5 g/ha [11]: 0%; pest or weed control at 250 g/ha [11]: 80%; pest or weed control at 15.625 g/ha [12]: 0%; pest or weed control at 62.5 g/ha [12]: 0%; pest or weed control at 250 g/ha [12]: 10%

Reference: patent US12077503B2, “Substituted cyclic amides and their use as herbicides” (FMC CORPORATION, priority 2015, dated 2024)
